# Assay results as given in patent US20020049157A1, “Use of proteasome inhibitors for treating cancer, inflammation, autoimmune disease, graft rejection and septic shock” (priority 1998, published 2002).
# Columns and labels:
# [1] = test system: Bcl-xL; assay: Immunoblotting of Bcl-xL in Bcl-xL transfected Namalwa cells; assay type: cell-based, human; conditions: lactacystin 6 μM; 6 h
# Description: (§1) Jurkat cells, wild type Namalwa cells and Bcl-xL transfected Namalwa cells were treated with medium (lanes 1), staurosporine (0.3 μM, lanes 2) and lactacystin (6 μM, lanes 3) for 6 H. The proteins from the mitochondrial fraction of these cells were analyzed by immunoblotting and the amount of Bik, Bcl-xL, Bax, and Bak evaluated. The same membranes were used sequentially and probed with different antibodies against these factors. A nonspecific band recognized by a monoclonal antibody against cytochrome […] (COX) was used as control for even sample loading in the lanes.
# [2] = test system: p27^Kip1; assay: Immunoblotting of p27Kip1 level in T cells; assay type: cell-based, human; conditions: PHA, LAC 10 μM added once at 0 h
# Description: Tonsillar T cells were stimulated with PHA (2 μg/ml) for 16 h, 40 or 64 h in the absence or presence of LAC (10 μM). For the 16 h and 40 h culture, LAC was added once at 0 h. For the 64 h culture, LAC was added once at 40 h. The cell lysates were resolved in 10% SDS-PAGE, and blotted onto PVDF membranes. The membranes were hybridized with rabbit anti-p27^Kip1 antisera (FIG. 9A) or with anti-p21^Cip1 antisera (FIG. 9B) followed by ^125-protein A. The experiments were performed three times, and similar results were obtained. Representative data is shown.
# In addition to the cyclin levels, the CDK activities are also controlled by several low molecular weight inhibitors. We have examined in this study the effect of the proteasome on the CDK inhibitors p27^Kip1 (Hall et al., 1995, supra) and p21^Cip1 (el-Deiry et al., 1993, Cell 75:817). […] This is in agreement with previous reports (Hengst et al., 1996, Science 271:1861; Nourse et al., 1994, Nature 372:570). […] The blockage was less obvious when assayed at 40 h, probably because the gradual loss of LAC activity during the 40 h culture. […]
# Immunoblotting was employed to evaluate the levels of Cyclin E, cyclin A, p21^Cip1 and p27^Kip1. […] The cleared lysates were quantitated for protein concentrations. […] The signals on the membrane were detected by [^125I]-protein A followed by autoradiography.
# [3] = test system: Jurkat cells; assay: Jurkat cell viability by trypan blue exclusion; assay type: cell-based; conditions: 6 μM LAC
# Description: Tonsillar T cells (A, B, and D) and Jurkat cells (C and E) were treated with LAC (10 μM for T cells and 6 μM for Jurkat cells). LAC was added at the beginning of the culture or 40 h after T cell activation as indicated. The cells were harvested at the time points as shown. They were evaluated for their viability with trypan blue exclusion (A, B, and C), and for their mode of cell death according to DNA fragmentation (D and E). The effect of LAC on Jurkat cells was quite similar to that on the activated T cells.
# [4] = test system: Bik; assay: Immunoblotting of Bik in wild type Namalwa cells; assay type: cell-based, human; conditions: 6 h; lactacystin 6 μM, staurosporine 0.3 μM
# Description: as §1
# [5] = test system: mouse peritoneal exudate macrophages; assay: LPS-induced nitric oxide production by macrophages (nitrite, Griess reagent); assay type: cell-based; conditions: 2 μg/ml LPS; lactacystin at different concentrations
# Description: Nitric oxide production by the macrophages was measured according to the […] concentrations in the supernatants.
# BALB/c mice were injected i.p. with 3 ml of 3% thioglycollate broth. Three days later, peritoneal exudate macrophages of the mice were harvested and washed at 170 g for 10 min at 4° C. The macrophages were cultured in Teflon vials (2 cm in diameter) at 4×10^6/2 ml with various reagents (LPS, 2 μg/ml; IFNγ, 100 u/ml; LAC, 0.62-5 μM for the nitric oxide assay and 5 μM for the Northern blot assay).
# The nitrite concentration in the culture supernatant was measured as a way to indirectly reflect the nitric oxide level following a method described by Ding et al (Ding et al., 1988, J. Immunology 141:2407). Release of reactive nitrogen intermediates and reactive oxygen intermediates form mouse peritoneal macrophages: comparison of activation cytokines and evidence for independent production. Briefly, 100 μl of supernatants collected from 48 h macrophage cultures was incubated with an equal volume of the Griess reagent (1% sulfanimide/0.1% naphthylethylene diamine dihydrochloride/2.5% H3PO4) at room temperature for 10 min in 96-well microtitration plates, the O.D. was measured at 550 nm. Sodium nitrite of various concentrations were used to construct standard curves.
# [6] = test system: proteasome; assay: Proteasome activity in lysates of LAC-pretreated Jurkat cells (proteinase assay, sLLVY-MCA); assay type: cell-based; conditions: for proteasome activity in Jurkat cells: 3 h preincubation with LAC 6 μM
# Description: B. The inhibitory effect of LAC on the proteasome activity was reversible in the cells Jurkat cells were pretreated with LAC (6 μM) in culture medium for 3 h. The cells were washed and recultured at 0.5×10^6 cells/ml for 0 h, 5 h or 21 h. The cells were then harvested, washed and sonicated. The lysate protein (20 μg/sample) was assayed for its proteinase activity under a condition at which 90% of the activity was attributed to the proteasome. The samples were in duplicates. The result is expressed as relative fluorescence intensity at 440 nm.
# We used Jurkat cells that have high constitutive proteasome activity to evaluate the duration of LAC's effect once the drug entered the cells. Jurkat cells were treated with LAC (6 μM) for 3 h, which was sufficiently long for the compound to enter the cells as shown above. The cells were then thoroughly washed and recuitured, and they were harvested at 0 h, 5 h and 21 h after the wash, and the proteasome activity in the cell lysates was measured using a chromogenic chymotrypsin substrate. We have previously established that the proteinase activity measured by this assay was predominantly (more than 90%) derived from the proteasome (Wang et al., 1997, Eur. J. Immunol., supra).
compound,measurement,setting,value
"CC(=O)N[C@@H](CSC(=O)[C@]1([C@@H](O)C(C)C)NC(=O)[C@H](C)[C@@H]1O)C(=O)O [LAC, lactacystin]",Bcl-xL level in transfected Namalwa cells,[1],accumulation of Bcl-xL
same,decrease (degradation) of p27Kip1,[2]; assayed at 16 h,significantly blocked the decrease
same,blockage of p27Kip1 decrease,[2]; assayed at 40 h,less obvious
same,trypan blue positive cells,[3]; 24 h culture,about 60%
same,cell death (trypan blue),[3]; less than 8 h exposure,did not induce apparent Jurkat cell death
same,accumulation of Bik in Namalwa cells,[4],accumulates
same,LPS-induced NO production,[5],effectively repress
same,active duration within the cell and in the culture media,[6],about 16 h
same,proteasome activity in Jurkat cells,[6]; 0 h after wash,almost completely inhibited
same,proteasome activity in Jurkat cells,[6]; 5 h after wash,still significantly inhibited
same,proteasome activity in Jurkat cells,[6]; 21 h after wash,returned to a near-normal level
same,time in which LAC loses its activity in the cells,[6]; Jurkat cells after 3 h LAC 6 μM and wash,≤ 21 h
